Assay [1] concerns GTM-3 cells. The experiment in a line: Fibronectin ELISA of culture supernatants from treated GTM-3 cell monolayers (TGFβ2 mediated responses). The format is cell-based, human. The settings on record: GTM-3 monolayers, 24 h; for TGFβ2-stimulated fibronectin levels in supernatants: FIG. 1. As for the experimental part:
FIG. 1A, FIG. 1B and FIG. 1C depict the effects of various amounts of PKC inhibitors on basal and stimulated (TGFβ2) fibronectin content in supernatants collected from treated monolayers of GTM-3 cells.
(§1) Cultured transformed human TM cells (“GTM-3”; see Pang I H, et al., 1994) were grown in a growth medium consisting of Dulbecco's modified Eagle's medium with Glutamax I (Gibco/Invitrogen, Grand Island, N.Y.) supplemented with 10% fetal bovine serum (Hyclone, Logan, Utah) and 50 μg/mL gentamicin (Gibco/Invitrogen). For assay, cultures were enzymatically-dissociated (TrypLE Express; Gibco/Invitrogen) then seeded into 24-well plates (Corning Costar, Acton, Mass.) and allowed to grow until monolayers reached approximately 90-95% confluence. Culture medium was then replaced with 0.25 mL serum- and antibiotic-free medium containing the appropriate test compound(s). Cells were incubated 24 h, at 5% CO2 and 37° C. Aliquots of culture supernatants were then assayed using ELISA kits for fibronectin (AssayPro, St. Charles, Mo.), PAI-I (American Diagnostica, Stamford, Conn.) and procollagen Type I C-peptide (TaKaRa Bio, Shiga, Japan).
(§2) The test compounds used were rottlerin (a specific PKC-delta inhibitor), Gö6976 (inhibits the calcium-dependent PKC isoforms alpha, beta, & mu) and bisindolylmaleimide I (a broad-spectrum PKC inhibitor).
For orientation: An ELISA detects its analyte on a solid surface through an enzyme-linked reagent.

In assay [2] the test system is GTM-3 cells. The experiment in a line: PAI-I ELISA of culture supernatants from treated GTM-3 cell monolayers (TGFβ2 mediated responses). The format is cell-based, human. To be noted: GTM-3 monolayers, 24 h; for TGFβ2-stimulated PAI-I levels in supernatants: FIG. 2. The method, then: FIG. 2A, FIG. 2B and FIG. 2C depicts the effects of PKC inhibition on basal and stimulated (TGFβ2) PAI-I content in supernatants collected from treated monolayers of GTM-3 cells.
as §1, §2

In the case of `CN(C)CCCn1cc(C2=C(c3c[nH]c4ccccc34)C(=O)NC2=O)c2ccccc21` [Bis I, bisindolylmaleimide I], the “fibronectin levels in supernatants” value with GTM-3 cells [1] (basal and TGFβ2-stimulated, tested concentrations, FIG. 1C) was “lack of effect”. Besides, the “TGFβ2-stimulated PAI-I levels in supernatants” value (“TGFβ2-stimulated PAI-I levels” for short) in the assay on GTM-3 cells [2] is reported as “reduced TGFβ2-stimulated PAI-I levels only at the 100 nM dose”.

For the molecule `Cn1c2ccccc2c2c3c(c4c5ccccc5n(CCC#N)c4c21)CNC3=O` [Gö6976], the “TGFβ2-stimulated fibronectin levels in supernatants” value in the assay on GTM-3 cells [1] is listed as “without effect”. In addition, the “basal fibronectin content in supernatants” value with GTM-3 cells [1] (basal, FIG. 1B) is given as “without effect”. The “TGFβ2-stimulated PAI-I levels” value in the assay with GTM-3 cells [2] was “without effect”. The “basal PAI-I content in supernatants” value in the assay on GTM-3 cells [2] (basal, FIG. 2B) is “without effect”.

Take `CC(=O)c1c(O)c(C)c(O)c(Cc2c(O)c3c(c(C(=O)/C=C/c4ccccc4)c2O)OC(C)(C)C=C3)c1O` [rottlerin]: the “TGFβ2-stimulated fibronectin levels in supernatants” value with GTM-3 cells [1] is “effectively reduces TGFβ2-stimulated fibronectin levels at both tested concentrations”. In addition, the “basal fibronectin in supernatants” value in the assay with GTM-3 cells [1] (basal, 10 uM dose, FIG. 1A) is “effectively reduced basal fibronectin”. In addition, in the assay with GTM-3 cells [2], the “TGFβ2-stimulated PAI-I levels” value is recorded as “dose-dependently reduces TGFβ2-stimulated PAI-I levels”.

The record behind these values is patent US20080153903A1, “INHIBITORS OF PROTEIN KINASE C-DELTA FOR THE TREATMENT OF GLAUCOMA” (ALCON MANUFACTURING, LTD., priority 2006, published 2008).
